Assays:
BxPC-3 = test: Signaling events (p21Waf1/Cip1, p53) in BxPC-3 cells; type: cell-based, human
From the text: (§1) SN-38 is known to activate several signaling pathways in cells, leading to apoptosis (e.g., Cusack et al., 2001, Cancer Res 61:3535-40; Liu et al. 2009, Cancer Lett 274:47-53; Lagadec et al., 2008, Br J Cancer 98:335-44). Our initial studies examined the expression of 2 proteins involved in early signaling events (p21^Waf1/Cip1 and p53) and 1 late apoptotic event [cleavage of poly-ADP-ribose polymerase (PARP)] in vitro (not shown).

Calu-3 = test: Signaling events (p21Waf1/Cip1, p53) in Calu-3 cells; type: cell-based, human
From the text: as §1

MDA-MB-468 = test: MTS cytotoxicity assay, MDA-MB-468; type: cell-based, human; conditions: Example 5, 96 h
[1] = tested on: COLO 205 colonic adenocarcinoma xenografts
[2] = tested on: SK-MES-1 human squamous cell lung tumors; test: Therapy of SK-MES-1 tumor xenografts in nude mice; conditions: hA20 ADC equal dose; irinotecan at MTD (q2dx5)
[3] = tested on: GW-39 human colon carcinoma lung metastases; test: IMMU-130 therapy of GW-39 lung metastases in nude mice; type: in vivo, athymic nude mice
Experimental: (§2) Experiments were conducted in female athymic nude mice, 4 weeks or older, bearing s.c. LS174T human colon carcinoma xenografts of (˜0.2 cm^3 size), or 2 weeks after lung metastases were generated by i.v. injection of GW-39 human colon carcinoma cells. Untreated controls, including a non-targeting ADC, were included. […] Tolerability studies were conducted in white New Zealand rabbits.

[4] = tested on: LS174T human colon carcinoma xenografts; test: IMMU-130 therapy of s.c. LS174T xenografts in nude mice; type: in vivo, athymic nude mice; conditions: s.c. model
Experimental: as §2

[5] = Tolerability study of IMMU-130 in rabbits; type: in vivo, white New Zealand rabbits; conditions: given as two doses
Experimental: as §2

metastatic colon cancer [6] = test: Subcutaneous IMMU-130 in a patient with metastatic colon cancer (Example 11); type: in vivo, human; conditions: s.c. 4 mg/kg 3 times weekly for 2 weeks, 3 cycles; CT 8 weeks from treatment begin
Experimental: A person with metastatic colon cancer (3-5 cm diameters) to their left and right liver lobes, as well as a 5 cm metastasis to their right lung, and an elevated blood CEA value of 130 ng/mL, is treated with the anti-CEACAM-5 ADC IMMU-130 (hMN-14-CL2A-SN-38) administered subcutaneously at a dosage of 4 mg/kg, given 3 times weekly for 2 weeks, followed by rest, with 3 cycles of drug administration. […] Repeated courses of therapy continue as their neutropenia normalizes.

[7] = tested on: metastatic colonic cancer; test: IMMU-130 in a patient with advanced colon cancer (Example 13); type: in vivo, human
From the text: The patient is a person with a history of stage-IV metastatic colonic cancer, first diagnosed in 2008 and given a colectomy and partial hepatectomy for the primary and metastatic colonic cancers, respectively. […] In 2009, they received radiofrequency ablation therapy to their liver metastasis while under chemo-immunotherapy, and in late 2010 they underwent a wedge resection of their lung metastases, which was repeated a few months later, in early 2011. Despite having chemo-immunotherapy in 2011, new lung metastases appeared at the end of 2011, and in 2012, both lung and liver metastases were visualized. Their baseline plasma carcinoembryonic antigen (CEA) titer was 12.5 ng/mL just before undergoing the antibody-drug therapy with IMMU-130. The index lesions chosen by the radiologist for measuring tumor size change by computed tomography were the mid-lobe of the right lung and the liver metastases, both totaling 91 mm as the sum of their longest diameters at the baseline prior to IMMU-130 (anti-CEACAM5-SN-38) therapy.
This patient received doses of 10 mg/kg of IMMU-130 by slow IV infusion every other week for a total of 17 treatment doses. The patient tolerated the therapy well, having only a grade 1 nausea, diarrhea and fatigue after the first treatment, which occurred after treatments 4 and 5, but not therafter, because they received medication for these side-effects. After treatment 3, they did show alopecia (grade 2), which was present during the subsequent therapy. The nausea, diarrhea, and occasional vomiting lasted only 2-3 days, and their fatigue after the first infusion lasted 2 weeks. Otherwise, the patient tolerated the therapy well.

[8] = tested on: gastric adenocarcinoma metastases; test: I.V. and S.C. IMMU-130 in a gastric cancer patient (Example 15); type: in vivo, human
From the text: Their fourth infusion is postponed by one week, and then the weekly infusions are reinstituted, with no evidence of diarrhea or neutropenia for the next 4 injection. The patient then undergoes a CT study to measure their metastatic tumor sizes and to view the original area of gastric resection. The radiologist measures, according to RECIST criteria, a decrease of the sum of the metastatic lesions, compared to baseline prior to IMMU-130 therapy, of 23%. […] The patient's general condition improves and they resume their usual activities while continuing to receive a maintenance therapy of 3 mg/kg administered twice-weekly subcutaneously of IMMU-130 every six weeks for another 4 courses of therapy. At the last measurement of blood CEA, the value is 4.8 ng/mL, which is within the normal range for a smoker, which is the case for this patient.

metastatic colon cancer [9] = test: S.C. hMN-14-SN-38 ADC in advanced metastatic colon cancer (Example 16); type: in vivo, human; conditions: 2 mg/kg S.C. twice-weekly every other week, 3-month CT evaluation
Experimental: The hMN-14-SN-38 ADC is administered at a dosage of 2 mg/kg S.C., twice-weekly, which is repeated every other week for 4 months.

[10] = Drug release from the linker in IMMU-130
[11] = tested on: Calu-3 non-small cell lung carcinoma xenografts; test: Therapy of Calu-3 tumor xenografts in nude mice; type: in vivo, athymic nude mice; conditions: 0.4 mg/kg SN-38 q4dx4
Experimental: FIG. 4A. […] Mice bearing Calu-3 tumors (N=5-7) were injected with hRS7-CL2-SN-38 every 4 days for a total of 4 injections (q4dx4).

FIG. 3A = test: FIG. 3A
Experimental: Table printed on a drawing sheet, FIG. 3A
Footnotes: CL2-SN-38: AA = Phe / CL2A-SN-38: AA = None
The patent's description of the figure: FIG. 3A. Structures of CL2-SN-38 and CL2A-SN-38.
FIG. 3C. […] Capan-1 mice (N=10) were treated with 0.2 mg/kg ADC and tumors measured weekly.

[12] = tested on: Capan-1 pancreatic adenocarcinoma xenografts; test: Therapy of Capan-1 tumor xenografts in nude mice; type: in vivo, athymic nude mice; conditions: 0.2 mg/kg SN-38 twice weekly×4 weeks
Experimental: FIG. 3C. […] Animals were treated twice weekly for 4 weeks as indicated by the arrows. Capan-1 mice (N=10) were treated with 0.2 mg/kg ADC and tumors measured weekly.
FIG. 4C. […] Capan-1 (N=10) were treated twice weekly for 4 weeks with the agents indicated.

[13] = Body weight loss in the murine therapy studies; type: in vivo, mice; conditions: all murine studies
[14] = Tolerability in Cynomolgus monkeys; type: in vivo, Cynomolgus monkeys (Macaca fascicularis)
Experimental: FIG. 5C. Tolerability of hRS7-CL2A-SN-38 in Cynomolgus monkeys. […] All animals were bled on day −1, 3, and 6. Four monkeys were bled on day 11 in the 0.96 mg/kg group, 3 in the 1.92 mg/kg group. Changes in neutrophil counts in Cynomolgus monkeys.
FIG. 5D. Tolerability of hRS7-CL2A-SN-38 in Cynomolgus monkeys. […] All animals were bled on day −1, 3, and 6. Four monkeys were bled on day 11 in the 0.96 mg/kg group, 3 in the 1.92 mg/kg group. Changes in platelet counts in Cynomolgus monkeys.

[15] = tested on: diverse metastatic cancers; test: Phase I/II clinical trial of IMMU-132 (Example 9): best response and TTP
[16] = Pharmacokinetics of MAb vs. ADC (IMMU-130) in mice; type: in vivo
Experimental: as §2

[17] = esophageal cancer, 4 assessable patients

CCc1c2c(nc3ccc(O)cc13)-c1cc3c(c(=O)n1C2)COC(=O)[C@]3(O)CC [SN-38, reference compound]
time of p53 upregulation (BxPC-3): 48 h
time of p53 upregulation (Calu-3): 48 h
IC50 (MDA-MB-468): 1.54 nM

CCc1c2c(nc3ccc(OC(=O)N4CCC(N5CCCCC5)CC4)cc13)-c1cc3c(c(=O)n1C2)COC(=O)[C@]3(O)CC [irinotecan, reference compound]
effectiveness of the MTD of irinotecan ([1]; 24 mg SN-38/kg, q2dx5): as effective as hRS7-CL2-SN-38
antitumor effect relative to the specific conjugate [2]: provided the same antitumor effects as the specific hRS7-SN-38 conjugate

CC(=O)O[C@H]1C(=O)[C@@]2(C)[C@H]([C@H](OC(=O)c3ccccc3)[C@]3(O)C[C@H](OC(=O)[C@H](O)[C@@H](NC(=O)c4ccccc4)c4ccccc4)C(C)=C1C3(C)C)[C@]1(OC(C)=O)CO[C@@H]1C[C@@H]2O [paclitaxel]
IC50 (MDA-MB-468; Homo sapiens, MDA-MB-468): < 0.061 nM

IMMU-130: CEACAM5-targeted ADC, labetuzumab-SN-38, substituted at 7-8 moles/mole of IgG
effect of pre-dosing with labetuzumab on median survival ([3]; pre-dose up to twice the ADC dose, n=10): did not affect median survival
median survival vs. untreated mice ([3]; total 50 mg/kg ADC, 2 cycles of 21 days, twice-weekly×2 weeks and once weekly×2 weeks schedules): doubled median survival
efficacy vs. the conjugate with an ultrastable linker ([4]; n=5): superior
efficacy of combination with bevacizumab ([4]; n=8-10, P<0.031): improved efficacy
efficacy vs. an MTD of 5 FU/leucovorin chemotherapy ([4]; n=10, P<0.0001): better
NOAEL, human equivalent dose [5]: 40 to 60 mg/kg
reduction of the total mean diameters of the 3 target lesions (metastatic colon cancer [6]): 25%
grade of nausea, diarrhea and fatigue ([7]; 10 mg/kg IV): 1
change in index lesions from baseline (CT) ([7]; 10 mg/kg IV every other week, after 4 treatments): 28.6%
reduction in index lesions from baseline (CT) ([7]; after 8 treatments): 40.6%
anti-labetuzumab antibody in blood ([7]; after 16 doses): none was detected
plasma CEA titer ([7]; after the third therapy dose, baseline 12.6 ng/mL): 2.1 ng/mL
grade of alopecia ([7]; after treatment 3): 2
index lesions less than baseline (CT) ([7]; another 2 months later): 31.9%
decrease of the sum of the metastatic lesions (RECIST) ([8]; 8 mg/kg I.V. weekly, first CT study): 23%
grade of diarrhea ([8]; after 3 weeks of 8 mg/kg I.V.): 1
grade of neutropenia ([8]; after 3 weeks of 8 mg/kg I.V.): 2
decrease of the sum of all metastatic lesions ([8]; after a total of 13 infusions of 8.0 mg/kg I.V.): 41%
CEA titer ([8]; at first CT study, baseline 14.5 ng/mL): 7.2 ng/mL
blood CEA ([8]; last measurement, s.c. maintenance 3 mg/kg twice-weekly): 4.8 ng/mL
response by RECIST criteria (metastatic colon cancer [9]): partial response
time for liberating 50% of drug [10]: ~20 h

hLL2-CL2-SN-38 [reference compound]
tumor outcome [11]: tumors regrew

hRS7 IgG
time of p53 upregulation (BxPC-3): 48 h
time of p53 upregulation (Calu-3): 48 h

hRS7-CL2-SN-38 [listing 1 of 2 here]
HUMAN SERUM HALF-LIFE (FIG. 3A): 22.1 h

hRS7-CL2-SN-38 [listing 2 of 2 here]
tumor growth vs. saline and hA20-CL2A-SN-38 [12]: significantly inhibited tumor growth
mice tumor-free at the end of the study ([12]; day 140): 40%
time by which all mice were cured [11]: ≤ 28 days
tumor outcome [11]: remained tumor-free until the end of the study on day 147
tumor growth vs. saline and hA20-CL2A-SN-38 ([1]; 0.4 mg/kg SN-38 twice weekly×4 weeks): significantly inhibited tumor growth

hRS7-CL2A-SN-38
HUMAN SERUM HALF-LIFE (FIG. 3A): 20.3 h

hRS7-SN-38
tolerability in terms of body weight loss [13]: well tolerated
tolerated cumulative human equivalent dose ([14]; cynomolgus monkey, in vivo): 22 mg/m^2
tolerated dose ([14]; mild and reversible toxicity): 0.96 mg/kg/dose
extrapolated human dose ([14]; per dose): ~11 mg/m^2
reduction in target lesions ([15]; CRC patient, 8 mg/kg, first CT assessment): 37%
maximum reduction in target lesions ([15]; CRC patient, after 10 months of treatment): 65%
Best Response: PD, number of patients ([15]; CRC, 18 assessable patients): 6
Best Response: PR, number of patients ([15]; CRC, 18 assessable patients): 1
Best Response: SD, number of patients ([15]; CRC, 18 assessable patients): 11
Best Response: PD, number of patients ([15]; NSCLC, 5 assessable patients): 1
Best Response: PR, number of patients ([15]; NSCLC, 5 assessable patients): 1
Best Response: SD, number of patients ([15]; NSCLC, 5 assessable patients): 3
Best Response: PD, number of patients ([15]; SCLC, 4 assessable patients): 2
Best Response: PR, number of patients ([15]; SCLC, 4 assessable patients): 2
Best Response: SD, number of patients ([15]; SCLC, 4 assessable patients): 0
Best Response: PD, number of patients ([15]; TNBC, 8 assessable patients): 2
Best Response: PR, number of patients ([15]; TNBC, 8 assessable patients): 2
Best Response: SD, number of patients ([15]; TNBC, 8 assessable patients): 4
Best Response: PD, number of patients ([15]; all patients, 48 assessable): 14
Best Response: PR, number of patients ([15]; all patients, 48 assessable): 7
Best Response: SD, number of patients ([15]; all patients, 48 assessable): 27
Best Response: PD, number of patients [15, 17]: 1
Best Response: PR, number of patients [15, 17]: 1
Best Response: SD, number of patients [15, 17]: 2

labetuzumab
half-life longer for MAb vs. ADC [16]: ~25%

Reference: patent publication US10799597B2, “Subcutaneous administration of antibody-drug conjugates for cancer therapy” (Immunomedics, Inc., priority 2017, dated 2020)
